Several values for one entry are separate records, joined by “and”; a condition that tells them apart may be missing. Identical values can stand only once. Like-named read-outs stand apart in the source and are kept apart here.
Experiments:
[1] = tested on: HL-60 human promyelocytic leukemia cells; assay: MTT cytotoxicity assay, HL-60 cells; format: cell-based; settings: for IC50: MTT
Procedure: (§1) For cytotoxicity experiments, cancer cells were seeded at a density of 5,000 (MCF-7), 10,000 (HL-60) or 2,000 cells/well (HCT116 and A549) in 96-well plates (TPP) for 24 h/37°C prior to the addition of examined agents. The non-cancerous cells, 3T3 and H9c2 cells, were cultured for 24 h/37°C in 96-well plates at a density of 10,000 cells/well, the medium was then changed to serum- and pyruvate-free DMEM (Sigma-Aldrich) and incubated with the cells for another 24 h/37°C. The cytotoxic effects of Bp4eT and its metabolites were studied at different concentrations after a 72 h/37°C incubation. In order to aid the dissolution of the lipophilic ligands, 0.1% dimethyl sulfoxide (v/v) (DMSO; Sigma-Aldrich) was present in the culture medium of all groups. At this concentration, DMSO had no effect on cellular proliferation or viability.
(§2) The viability of cells were determined using an MTT assay (Sigma-Aldrich) according to previously established methods. The optical density of soluble MTT was measured at λ = 570 nm, subtracting the λ = 690 nm background using a Tecan Infinite 200M plate reader (Tecan Group, Männedorf, Switzerland). The viability or proliferation of experimental groups was expressed as a percentage of the untreated controls (100%).
(§3) SigmaStat for Windows 3.5 (Systat Software, San Jose, CA, USA) statistical software package was utilized to analyze results. The data are expressed as the mean ± SD of a given number of experiments. Statistical significance was determined using a one-way ANOVA with a Bonferroni post-hoc test or Student’s t-test. The results were considered to be statistically significant when p < 0.05. The IC50 values were calculated using CalcuSyn 2.0 software (Biosoft, Cambridge, UK). Cell cycle analysis was evaluated using MultiCycle AV Software (Phoenix Flow Systems, San Diego, CA, USA).

[2] = tested on: A549 human lung adenocarcinoma cells; assay: MTT cytotoxicity assay, A549 cells; format: cell-based; settings: for IC50: MTT
Procedure: as §1, §2, §3

With CCNC(=S)NN=C(c1ccccc1)c1ccccn1 [Bp4eT, 2-benzoylpyridine 4-ethyl-3-thiosemicarbazone] the “Therapeutic index, IC50 non-cancerous cells / IC50 neoplastic cells” value ([1]; 3T3/HL-60) was 436.3, the “Therapeutic index, IC50 non-cancerous cells / IC50 neoplastic cells” value ([1]; H9c2/HL-60) was 174.7 and the “MTT, relative to control (0 = 100)” value ([1]; HL-60, 10 000 b/j, 0.1 nM, průměr (mean)) was 98.01. For the same compound, the “MTT, relative to control (0 = 100)” value ([1]; HL-60, 10 000 b/j, 0.1 nM, single experiment (date)) was 96.1425 and 103.96 and 95.2755 and 95.4167 and 99.2528, the “MTT, relative to control (0 = 100)” value ([1]; HL-60, 10 000 b/j, 0.3 nM, průměr (mean)) was 96.66 and the “MTT, relative to control (0 = 100)” value ([1]; HL-60, 10 000 b/j, 0.3 nM, single experiment (date)) was 99.4278 and 92.0645 and 96.8892 and 98.2749. For the same compound, the “MTT, relative to control (0 = 100)” value ([1]; HL-60, 10 000 b/j, 1 nM, průměr (mean)) was 97.15, the “MTT, relative to control (0 = 100)” value ([1]; HL-60, 10 000 b/j, 1 nM, single experiment (date)) was 95.2755 and 96.4389 and 98.8804 and 97.9877 and the “MTT, relative to control (0 = 100)” value ([1]; HL-60, 10 000 b/j, 3 nM, průměr (mean)) was 62.98. For the same compound, the “MTT, relative to control (0 = 100)” value ([1]; HL-60, 10 000 b/j, 3 nM, single experiment (date)) was 50.186 and 52.1752 and 67.6874 and 81.8744, the “MTT, relative to control (0 = 100)” value ([1]; HL-60, 10 000 b/j, 10 nM, průměr (mean)) was 3.98 and the “MTT, relative to control (0 = 100)” value ([1]; HL-60, 10 000 b/j, 30 nM, průměr (mean)) was 1.50. The “MTT, relative to control (0 = 100)” value ([1]; HL-60, 10 000 b/j, 100 nM, průměr (mean)) was 1.69, the IC50 ([1]; HL-60, 10 000 b/j, single experiment (date), read-out: IC50 měřené) was 2.84 nM and 3.65 nM and 4.08 nM and the IC50 ([1]; Homo sapiens, HL-60, 72 h, HL-60, 72 h/37°C, mean ± SD, n ≥ 4, read-out: IC50) was 3 ± 1 nM. The IC50 ([1]; Homo sapiens, HL-60, HL-60, 10 000 b/j, průměr (mean), read-out: IC50 měřené) was 3.48 nM, the IC50 ([1]; Homo sapiens, HL-60, HL-60, 10 000 b/j, single experiment (date), read-out: IC50 měřené) was 3.35 nM and the “Therapeutic index, IC50 non-cancerous cells / IC50 neoplastic cells” value ([2]; 3T3/A549) was 2.2. The “MTT, relative to control (0 = 100)” value ([2]; A549, 2 000 b/j, 3 nM, průměr (mean)) was 92.19, the “MTT, relative to control (0 = 100)” value ([2]; A549, 2 000 b/j, 3 nM, single experiment (date)) was 91.5535 and 92.8133 and 91.0654 and 88.0734 and 97.4647 and the “MTT, relative to control (0 = 100)” value ([2]; A549, 2 000 b/j, 10 nM, průměr (mean)) was 91.72. For the same compound, the “MTT, relative to control (0 = 100)” value ([2]; A549, 2 000 b/j, 10 nM, single experiment (date)) was 91.5177 and 92.1605 and 92.1041 and 86.392 and 96.4421, the “MTT, relative to control (0 = 100)” value ([2]; A549, 2 000 b/j, 30 nM, průměr (mean)) was 87.89 and the “MTT, relative to control (0 = 100)” value ([2]; A549, 2 000 b/j, 30 nM, single experiment (date)) was 87.7056 and 88.2789 and 85.7469 and 83.2321 and 94.498. For the same compound, the “MTT, relative to control (0 = 100)” value ([2]; A549, 2 000 b/j, 100 nM, průměr (mean)) was 69.03, the “MTT, relative to control (0 = 100)” value ([2]; A549, 2 000 b/j, 100 nM, single experiment (date)) was 72.0253 and 71.8755 and 68.5876 and 61.5642 and 71.0965 and the “MTT, relative to control (0 = 100)” value ([2]; A549, 2 000 b/j, 300 nM, průměr (mean)) was 52.20. For the same compound, the “MTT, relative to control (0 = 100)” value ([2]; A549, 2 000 b/j, 300 nM, single experiment (date)) was 56.5532 and 52.1351 and 48.5459 and 51.5538, the “MTT, relative to control (0 = 100)” value ([2]; A549, 2 000 b/j, 1000 nM, průměr (mean)) was 44.75 and the “MTT, relative to control (0 = 100)” value ([2]; A549, 2 000 b/j, 1000 nM, single experiment (date)) was 46.6699 and 42.1761 and 41.9617 and 48.1966. For the same compound, the “MTT, relative to control (0 = 100)” value ([2]; A549, 2 000 b/j, 3000 nM, průměr (mean)) was 30.92, the “MTT, relative to control (0 = 100)” value ([2]; A549, 2 000 b/j, 3000 nM, single experiment (date)) was 34.7604 and 31.7204 and 27.6953 and 29.4937 and the IC50 ([2]; A549, 2 000 b/j, single experiment (date)) was 550 nM and 407 nM and 670 nM. The “Therapeutic index, IC50 non-cancerous cells / IC50 neoplastic cells” value ([2]; H9c2/A549) was 0.9, the IC50 ([2]; Homo sapiens, A549, 72 h, A549, 72 h/37°C, mean ± SD, n ≥ 4) was 593 ± 148 nM and the IC50 ([2]; Homo sapiens, A549, A549, 2 000 b/j, průměr (mean)) was 593 nM. It also gave an IC50 ([2]; Homo sapiens, A549, A549, 2 000 b/j, single experiment (date)) of 744 nM.

From paper PMC4604124, “In Vitro Characterization of the Pharmacological Properties of the Anti-Cancer Chelator, Bp4eT, and Its Phase I Metabolites” (PLoS ONE, 2015)
